Experimental data reported in ChEMBL document CHEMBL1201862, “PubChem BioAssay data set” (2004).
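Each compound was tested at five concentrations against cells in 96-well plates for 48 hours. At the GI50, growth is halved.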 The source made the active and inactive calls. Rule as the data show it: active = GI50 up to about 1.1 µM and inactive = higher.

What was measured:
Experiment in all cases: DTP human tumour cell line panel, 48 h
[1] = tested on: RPMI-8226
[2] = tested on: HCC 2998
[3] = tested on: MDA-N
[4] = tested on: UO-31
[5] = tested on: OVCAR-3
[6] = tested on: HOP-62
[7] = tested on: MCF7
[8] = tested on: CAKI-1
[9] = tested on: NCI/ADR-RES
[10] = tested on: SNB-19
[11] = tested on: SF-539
[12] = tested on: SK-OV-3
[13] = tested on: SR
[14] = tested on: PC-3
[15] = tested on: M14
[16] = tested on: SK-MEL-28
[17] = tested on: SF-268
[18] = tested on: ACHN
[19] = tested on: OVCAR-4

Q: Which results are given for `COc1cc(C(=O)O)c([N+](=O)[O-])c(OC)c1OC`?
A: GI50 [1]: > 100 µM (inactive); GI50 [2]: > 100 µM (inactive); GI50 [3]: > 100 µM (inactive); GI50 [4]: > 100 µM (inactive); GI50 [5]: > 100 µM (inactive); GI50 [6]: > 100 µM (inactive); GI50 [7]: > 100 µM (inactive); GI50 [8]: > 100 µM (inactive); GI50 [9]: > 100 µM (inactive); GI50 [10]: > 100 µM (inactive); GI50 [11]: > 100 µM (inactive); GI50 [12]: > 100 µM (inactive); GI50 [13]: > 100 µM (inactive); GI50 [14]: > 100 µM (inactive); GI50 [15]: > 100 µM (inactive); GI50 [16]: > 100 µM (inactive); GI50 [17]: > 100 µM (inactive); GI50 [18]: > 100 µM (inactive); GI50 [19]: > 100 µM (inactive)

Q: What does the source list for `COC(=O)c1ccc(CCc2cc(O)ccc2O)cc1`?
A: GI50 [1]: 0.847 µM (active); GI50 [2]: 23.9 µM (inactive); GI50 [3]: 5.94 µM (inactive); GI50 [4]: 2.02 µM (inactive); GI50 [5]: 2.96 µM (inactive); GI50 [6]: 12.2 µM (inactive); GI50 [7]: 7.5 µM (inactive); GI50 [8]: 4.06 µM (inactive); GI50 [9]: 12.8 µM (inactive); GI50 [10]: 12 µM (inactive); GI50 [11]: 3.66 µM (inactive); GI50 [12]: 38 µM (inactive); GI50 [13]: 2.44 µM (inactive); GI50 [14]: 4.3 µM (inactive); GI50 [15]: 10.6 µM (inactive); GI50 [16]: 16.6 µM (inactive); GI50 [17]: 5.68 µM (inactive); GI50 [18]: 13.3 µM (inactive); GI50 [19]: 10.8 µM (inactive)

Q: With `CCOC(=O)CCc1ccc(NC(=O)/C=C/c2ccc([N+](=O)[O-])o2)cc1` as the molecule, how does the GI50 [1] read?
A: Its GI50 is 0.286 µM (active).

Q: And the GI50 [2]?
A: The GI50 was 2.69 µM (inactive).

Q: And the GI50 [3]?
A: The GI50 was 0.807 µM (active).

Q: And the GI50 [4]?
A: Its GI50 is 1.61 µM (inactive).

Q: What about the GI50 [5] of the same molecule?
A: Its GI50 is 0.61 µM (active).

Q: And the GI50 [6]?
A: The GI50 was 3.27 µM (inactive).

Q: And the GI50 [7]?
A: The GI50 was 0.426 µM (active).

Q: And the GI50 [8]?
A: The GI50 was 2.47 µM (inactive).

Q: And the GI50 [9]?
A: The GI50 was 1.78 µM (inactive).

Q: What about the GI50 [10] of the same molecule?
A: Its GI50 is 9.82 µM (inactive).

Q: What about the GI50 [11] of the same molecule?
A: The GI50 was 1.72 µM (inactive).

Q: And the GI50 [12]?
A: The GI50 was 9.12 µM (inactive).

Q: What about the GI50 [13] of the same molecule?
A: The GI50 was 0.155 µM (active).

Q: What about the GI50 [14] of the same molecule?
A: The GI50 was 3.03 µM (inactive).

Q: And the GI50 [15]?
A: Its GI50 is 0.92 µM (active).

Q: And the GI50 [16]?
A: Its GI50 is 0.773 µM (active).

Q: And the GI50 [17]?
A: Its GI50 is 1.12 µM (inactive).

Q: What about the GI50 [18] of the same molecule?
A: Its GI50 is 1.34 µM (inactive).

Q: What about the GI50 [19] of the same molecule?
A: Its GI50 is 3.94 µM (inactive).

Q: Which results are given for `C=C1[C@@H](O)C[C@@]23CC[C@@H]4[C@@]5(C)CC[C@@H](OC(C)=O)C(C)(C)[C@@H]5C[C@@H](OC5OC(COC(C)=O)C(O)C(O)C5O)[C@@]4(C)C2=CC[C@H]3[C@H]1C` (stereo partly drawn)?
A: GI50 [1]: 2.84 µM (inactive); GI50 [2]: 1.75 µM (inactive); GI50 [3]: 5.16 µM (inactive); GI50 [4]: 14.1 µM (inactive); GI50 [5]: 3.72 µM (inactive); GI50 [6]: 11.7 µM (inactive); GI50 [7]: 2.14 µM (inactive); GI50 [8]: 13.1 µM (inactive); GI50 [9]: 17.5 µM (inactive); GI50 [10]: 4.93 µM (inactive); GI50 [11]: 11.8 µM (inactive); GI50 [12]: 13.1 µM (inactive); GI50 [13]: 2.33 µM (inactive); GI50 [14]: 3.66 µM (inactive); GI50 [15]: 4.49 µM (inactive); GI50 [16]: 7.35 µM (inactive); GI50 [17]: 4.82 µM (inactive); GI50 [18]: 9.12 µM (inactive); GI50 [19]: 5.57 µM (inactive)

Q: `O=C1c2cccnc2-c2nccc3c2c1nc1cc(Br)ccc13` was tested. Which GI50 [1] did it give?
A: Its GI50 is 0.0748 µM (active).

Q: And the GI50 [2]?
A: The GI50 was 0.406 µM (active).

Q: What about the GI50 [3] of the same molecule?
A: The GI50 was 0.225 µM (active).

Q: What about the GI50 [4] of the same molecule?
A: Its GI50 is 0.221 µM (active).

Q: What about the GI50 [5] of the same molecule?
A: The GI50 was 0.124 µM (active).

Q: And the GI50 [6]?
A: Its GI50 is 0.155 µM (active).

Q: What about the GI50 [7] of the same molecule?
A: The GI50 was < 0.0366 µM (active).

Q: What about the GI50 [8] of the same molecule?
A: Its GI50 is 0.218 µM (active).

Q: What about the GI50 [9] of the same molecule?
A: Its GI50 is 0.0375 µM (active).

Q: And the GI50 [10]?
A: The GI50 was 0.27 µM (active).

Q: What about the GI50 [11] of the same molecule?
A: Its GI50 is 0.279 µM (active).

Q: What about the GI50 [12] of the same molecule?
A: Its GI50 is 0.239 µM (active).

Q: What about the GI50 [13] of the same molecule?
A: Its GI50 is 0.0221 µM (active).

Q: And the GI50 [14]?
A: Its GI50 is 0.275 µM (active).

Q: And the GI50 [15]?
A: The GI50 was 0.0553 µM (active).

Q: What about the GI50 [16] of the same molecule?
A: The GI50 was 0.0843 µM (active).

Q: What about the GI50 [17] of the same molecule?
A: The GI50 was 0.134 µM (active).

Q: And the GI50 [18]?
A: Its GI50 is 0.208 µM (active).

Q: What about the GI50 [19] of the same molecule?
A: The GI50 was 0.148 µM (active).

Q: `CC1=NN(c2nc(N)nc(-c3cc4ccccc4oc3=N)n2)C(C)(C)C1` was tested. Which GI50 [1] did it give?
A: Its GI50 is 19.6 µM (inactive).

Q: And the GI50 [2]?
A: The GI50 was 15 µM (inactive).

Q: And the GI50 [3]?
A: Its GI50 is 16.5 µM (inactive).

Q: And the GI50 [4]?
A: The GI50 was 19.1 µM (inactive).

Q: And the GI50 [5]?
A: The GI50 was 17.7 µM (inactive).

Q: And the GI50 [6]?
A: Its GI50 is 21.4 µM (inactive).

Q: And the GI50 [7]?
A: The GI50 was 27.7 µM (inactive).

Q: And the GI50 [8]?
A: The GI50 was 17.3 µM (inactive).

Q: What about the GI50 [9] of the same molecule?
A: Its GI50 is 22 µM (inactive).

Q: What about the GI50 [10] of the same molecule?
A: Its GI50 is 32.7 µM (inactive).

Q: And the GI50 [11]?
A: The GI50 was 19.5 µM (inactive).

Q: And the GI50 [12]?
A: Its GI50 is 18.8 µM (inactive).

Q: And the GI50 [13]?
A: The GI50 was 19.6 µM (inactive).

Q: What about the GI50 [14] of the same molecule?
A: Its GI50 is 17.1 µM (inactive).

Q: What about the GI50 [15] of the same molecule?
A: The GI50 was 20.6 µM (inactive).

Q: What about the GI50 [16] of the same molecule?
A: Its GI50 is 16.5 µM (inactive).

Q: What about the GI50 [17] of the same molecule?
A: The GI50 was 19.1 µM (inactive).

Q: And the GI50 [18]?
A: Its GI50 is 19 µM (inactive).

Q: And the GI50 [19]?
A: Its GI50 is 17.4 µM (inactive).

Q: How did the GI50 [1] turn out when `Cc1ccc(/C(C#N)=C/c2cccc([N+](=O)[O-])c2)cc1` was run?
A: The GI50 was > 100 µM (inactive).

Q: What about the GI50 [2] of the same molecule?
A: The GI50 was > 100 µM (inactive).

Q: And the GI50 [3]?
A: Its GI50 is > 100 µM (inactive).

Q: What about the GI50 [4] of the same molecule?
A: Its GI50 is 45.3 µM (inactive).

Q: And the GI50 [5]?
A: The GI50 was > 100 µM (inactive).

Q: What about the GI50 [6] of the same molecule?
A: The GI50 was 38.1 µM (inactive).

Q: And the GI50 [7]?
A: The GI50 was > 100 µM (inactive).

Q: What about the GI50 [8] of the same molecule?
A: Its GI50 is > 100 µM (inactive).

Q: And the GI50 [9]?
A: Its GI50 is > 100 µM (inactive).

Q: What about the GI50 [10] of the same molecule?
A: Its GI50 is 43.8 µM (inactive).

Q: What about the GI50 [11] of the same molecule?
A: The GI50 was 46.5 µM (inactive).

Q: What about the GI50 [12] of the same molecule?
A: Its GI50 is 61.9 µM (inactive).

Q: And the GI50 [13]?
A: The GI50 was > 100 µM (inactive).

Q: And the GI50 [14]?
A: Its GI50 is > 100 µM (inactive).

Q: And the GI50 [15]?
A: Its GI50 is > 100 µM (inactive).

Q: And the GI50 [16]?
A: The GI50 was > 100 µM (inactive).

Q: What about the GI50 [17] of the same molecule?
A: The GI50 was 37.2 µM (inactive).

Q: And the GI50 [18]?
A: The GI50 was > 100 µM (inactive).

Q: And the GI50 [19]?
A: The GI50 was 57.8 µM (inactive).
